Assay results from patent US8722035B2, “Formulations including digestive enzymes, polysorbate-based surfactants and probiotics” (Master Supplements, Inc., priority 2007, dated 2014).

Columns and labels:
[1] = tested on: Lactobacillus acidophilus LA-1; assay: Growth of Lactobacillus acidophilus LA-1 in broth, plated on MRS agar (Examples 1 and 4); type: cell-based
Experimental: • I) Lactobacillus acidophilus LA-1 was inoculated at one (1) million CFU/ml into 500 ml of sterile broth medium conta Ming 2% casein, 2% corn starch, 0.1% calcium carbonate, 0.1% magnesium carbonate, and 0.05% yeast extract (Difco); a medium in which it is difficult to achieve significant Lactobacillus growth but which contains typical nutrients found in human diets. The inoculated broth (contained in 1 L Erlenmeyer flasks) was incubated at 37 C for 24 hours and then plated on MRS auar to determine CFU/ml. Result (average of triplicate samples): 12 million CFU/ml. • II) The test in (I) was repeated where the medium also contained 0.1% Tween-80. Result: 14 million CFU/ml. • III) The test in (I) was repeated where the medium was pre-treated with digestive enzymes for 24 hours prior to sterilization at 121 C for 20 minutes at 15 psi. The pre-treatment involved adding 250 mg of a lactogenic enzyme mixture containing papain (10,000 TU), bromelain (50 GDU), alpha-amylase (1,000 SKB) and glucoamylase (2.5 AG). Result: 87 million CFU/ml • IV) The test in (III) was repeated where 0.1% Tween-80 (as DP35) was added during the enzyme pre-treatment procedure. […]

[2] = hydrophile-lipophile balance, designated from 1 to 20; cited from earlier work
[3] = tested on: Lactobacillus paracasei F-19; assay: Growth of Lactobacillus paracasei F-19 in broth, plated on MRS agar (Example 3); type: cell-based; settings: procedures of Example 1, untreated Test I 14 million CFU/ml
[4] = tested on: Bifidobacterium bifidum BB-12; assay: Growth of Bifidobacterium bifidum BB-12 in broth (Example 6); type: cell-based; settings: untreated Test I 11 million CFU/ml
[5] = tested on: Bifidobacterium lactis BL04; assay: Anaerobic growth of Bifidobacterium lactis BL04 in broth, plated on MRS agar plus L-cysteine HCl (Example 5); type: cell-based; settings: inoculum 2 million CFU/ml, casein/rye/asparagus/barley broth, anaerobic 37 C, 24 hours, 0.025% Tween-80, 250 mg enzyme mixture, 24 h pre-treatment, untreated Test I 8 million CFU/ml
Experimental: • I) Bifidobacterium lactis BL04 was inoculated at two (2) million CFU/ml into 500 ml of sterile broth medium containing 2% casein, 1% rye flour, 1% asparagus powder (ground freeze-dried asparagus), 1% barley flour, 0.1% calcium carbonate, 0.1% magnesium carbonate, and 0.05% yeast extract (Difco); a medium in which it is generally difficult to achieve significant Bifidobacteria growth but contains typical nutrients fbund in human diets. The inoculated broth (contained in 1 L Erlenmeyer flasks) was incubated anaerobically at 37 C for 24 hours and then plated on MRS agar plus L-cysteine HCl, to determine CFU/ml (plates were incubated anaerobically), Result (average of triplicate samples): 8 million CFU/ml. • II) The test in I) was repeated where the medium also contained 0.025% Tween-80. Result: 3 million CFU/ml. • III) The test in I) was repeated where the medium was pre-treated with digestive enzymes for 24 hours prior to sterilization at 121 C for 20 minutes at 15 psi. The pre-treatment involved adding 250 mg of a bifidogenic enzyme mixture containing cellulase-TL (1,000 CU), hemicellulase (1,000 HCU), beta-glucanase (50 BGU), papain (10,000 TU) and bromelain (50 GDU). Result 74 million CFU/ml. • IV) The test in III) was repeated where 0.025% Tween-80 was added during the enzyme pre-treatment procedure.

[6] = tested on: Lactobacillus rhamnosus HN001; assay: Growth of Lactobacillus rhamnosus HN001 in broth, plated on MRS agar (Example 2); type: cell-based; settings: procedures of Example 1, untreated Test I 6 million CFU/ml
Experimental: • I) Lactobacillus acidophilus LA-1 was inoculated at one (1) million CFU/ml into 500 ml of sterile broth medium conta Ming 2% casein, 2% corn starch, 0.1% calcium carbonate, 0.1% magnesium carbonate, and 0.05% yeast extract (Difco); a medium in which it is difficult to achieve significant Lactobacillus growth but which contains typical nutrients found in human diets. The inoculated broth (contained in 1 L Erlenmeyer flasks) was incubated at 37 C for 24 hours and then plated on MRS auar to determine CFU/ml. Result (average of triplicate samples): 12 million CFU/ml. • II) The test in (I) was repeated where the medium also contained 0.1% Tween-80. Result: 14 million CFU/ml. • III) The test in (I) was repeated where the medium was pre-treated with digestive enzymes for 24 hours prior to sterilization at 121 C for 20 minutes at 15 psi. The pre-treatment involved adding 250 mg of a lactogenic enzyme mixture containing papain (10,000 TU), bromelain (50 GDU), alpha-amylase (1,000 SKB) and glucoamylase (2.5 AG). Result: 87 million CFU/ml • IV) The test in (III) was repeated where 0.1% Tween-80 (as DP35) was added during the enzyme pre-treatment procedure.
• The procedures of Example 1 were repeated with Lactobacillus rhamnosus HN001 substituted for Lactobacillus acidophilus LA-1. The results are as follows: Test I): 6 million CFU/ml. Test II): 7.5 million CFU/ml. Test III): 62 million CFU/ml.

polyoxyethylene sorbitan monostearate [Tween-60]
viable count of L. acidophilus LA-1 after incubation ([1]; Example 4, procedures of Example 1 with different enzyme mixture and Tween-60 in place of Tween-80, untreated Test I 10 million CFU/ml): 9 million CFU/ml

CCCCCCCC/C=C\CCCCCCCC(=O)OCCOCC(OCCO)C1OCC(OCCO)C1OCCO (stereo not shown) [Tween-80, polyoxyethylene sorbitan monooleate]
HLB [2]: 15.0
viable count of L. paracasei F-19 after incubation [3]: 19 million CFU/ml
viable count of Bifidobacterium bifidum BB-12 after incubation [4]: 5 million CFU/ml
viable count of Bifidobacterium lactis BL04 after incubation [5]: 3 million CFU/ml
viable count of L. rhamnosus HN001 after incubation [6]: 7.5 million CFU/ml
viable count of L. acidophilus LA-1 after incubation ([1]; Example 1, inoculum 1 million CFU/ml, casein/corn starch broth, 37 C, 24 hours, 0.1% Tween-80, 250 mg enzyme mixture, 24 h pre-treatment, untreated Test I 12 million CFU/ml): 14 million CFU/ml
